Assays:
[1] = system: murine bone marrow cells; experiment: Murine bone marrow cell proliferation in vitro ([3H] thymidine incorporation); conditions: cisplatinum 25 μM, regardless the addition of vaso
[2] = system: murine bone marrow cells; conditions: C57BL/6NCR, mouse, 77 nM

SMILES | bone marrow cell proliferation induced by IL-3 at the highest dose of cisplatinum [1] | reduction of bone marrow cell proliferation [2]
N.N.[Cl][Pt][Cl] [Cisplatinum, cis-diammine-dichloroplatinum II, reference compound] | minimal | –
COc1cc([C@@H]2c3cc4c(cc3[C@@H](O[C@@H]3O[C@@H]5CO[C@@H](C)O[C@H]5[C@H](O)[C@H]3O)[C@H]3COC(=O)[C@H]23)OCO4)cc(OC)c1O [Etoposide, reference compound] | – | 1.5-2.7 fold
